According to the NIST ThermoML archive (doi:10.1021/je400581e):

How the values were obtained:
[1] = Liquid; for mass density: 298.15 K, 101.33 kPa, Vibrating tube method
[2] = refractive index (Na D-line) (dimensionless); settings: 298.15 K; 101.33 kPa; Liquid; Standard Abbe refractometry

CC(C)CCO [3-methylbutan-1-ol]
Settings	mass density [kg/m3]	refractive index
[1]	806.21	–
[2]	–	1.4035

[1]
Settings	vapor or sublimation pressure [kPa]
395.68 K	74.7
404.7 K	101.3
404.71 K	101.3

CC(C)CO [2-methyl-1-propanol]
Settings	mass density [kg/m3]	refractive index
[1]	795.35	–
[2]	–	1.3927

[1], Ebulliometric method (Recirculating still)
Settings	vapor or sublimation pressure [kPa]
347.84 K	26.2
351.07 K	30.19
359.54 K	43.66
362.99 K	50.45
368.56 K	63.25
372.09 K	72.73
372.56 K	74.66
375.06 K	81.58
378.19 K	91.8
380.73 K	101.32
382.25 K	106.5

CC(C)O [propan-2-ol]
Settings	mass density [kg/m3]	refractive index
[1]	779.36	–
[2]	–	1.374

[1], Ebulliometric method (Recirculating still)
Settings	vapor or sublimation pressure [kPa]
325.2 K	26.21
328 K	30.2
335.73 K	43.66
338.88 K	50.43
343.99 K	63.24
347.25 K	72.74
347.86 K	74.65
349.98 K	81.59
352.84 K	91.8
355.37 K	101.3
356.56 K	106.52
